Experimental findings from US20160045486A1, “DOPAMINE RECEPTOR LIGANDS WITH ENHANCED DURATION OF ACTION” (priority 2008, published 2016) are described below.

pKi: −log10 of the molar value. Structures can show the parent of a compound that is named as a salt. Where two headings read alike, the source gives them in different places.

In assay [1] the target is T1, Cloned human receptors D3 (CHO) (Homo sapiens, UniProt P35462).
T1 construct: expressed in transfected cells; host or cells: CHO cells
T1 sequence (P35462 whole entry): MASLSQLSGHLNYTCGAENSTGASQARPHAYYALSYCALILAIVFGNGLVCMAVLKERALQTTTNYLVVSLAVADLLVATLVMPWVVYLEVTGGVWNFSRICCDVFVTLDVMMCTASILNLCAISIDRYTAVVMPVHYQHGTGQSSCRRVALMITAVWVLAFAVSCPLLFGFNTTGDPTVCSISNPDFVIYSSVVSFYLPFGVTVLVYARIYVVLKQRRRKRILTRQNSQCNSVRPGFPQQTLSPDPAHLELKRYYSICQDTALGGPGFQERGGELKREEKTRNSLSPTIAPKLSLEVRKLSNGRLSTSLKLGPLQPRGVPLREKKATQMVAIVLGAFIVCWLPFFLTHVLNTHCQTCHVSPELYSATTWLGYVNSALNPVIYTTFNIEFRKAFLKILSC
Put plainly: Binding affinity, cloned human D3 receptor (CHO).
Procedure: (§1) Binding data from each assay were analyzed separately. Data were normalized by expressing the average dpm at each competitor concentration as a percentage of total binding.

For assay [2], the target named is T2, Cloned human receptors D1 (C-6).
T2 construct: C-6 glioma cells expressing the rhesus macaque D1 A receptor, (C-6-m D1 A)
Kind of assay: Binding affinity, cloned human D1 receptor (C-6). On the procedure:
Cells were maintained in a humidified incubator at 37° C. with 5% CO2.

In assay [3] the target is T3, Cloned human receptors D2L (C-6) (Homo sapiens, UniProt P14416).
T3 construct: expressed in transfected cells; host or cells: C-6 cells
T3 sequence (P14416 whole entry): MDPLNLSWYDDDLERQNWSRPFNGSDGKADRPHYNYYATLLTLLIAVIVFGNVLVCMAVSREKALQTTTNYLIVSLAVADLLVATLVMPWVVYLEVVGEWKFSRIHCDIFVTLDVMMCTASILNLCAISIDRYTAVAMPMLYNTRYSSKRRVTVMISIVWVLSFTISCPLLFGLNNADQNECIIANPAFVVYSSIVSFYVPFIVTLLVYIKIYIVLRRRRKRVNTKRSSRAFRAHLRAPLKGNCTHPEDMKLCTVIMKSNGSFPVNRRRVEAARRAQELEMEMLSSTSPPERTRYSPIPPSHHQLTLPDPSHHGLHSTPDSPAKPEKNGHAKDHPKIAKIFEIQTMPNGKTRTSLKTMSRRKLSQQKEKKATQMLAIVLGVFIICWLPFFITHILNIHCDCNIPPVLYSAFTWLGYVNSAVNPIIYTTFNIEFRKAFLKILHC
Put plainly: Binding affinity, cloned human D2L receptor (C-6).
Procedure: as §1

Assay [4] relates to non-dopamine receptors (monoamine transporters, serotonin, adrenergic, hH1, muscarinic, opioid, miscellaneous receptors). Put plainly: Affinity at other receptors (10 μM screen of non-dopamine receptors and transporters). The settings on record: 10 μM concentration; full dose-response only where >50% inhibition of binding.
Assay [5] concerns unilateral 6-OHDA rat model. Put plainly: Rotation in the unilateral 6-OHDA rat model of Parkinson's disease. Type of assay: in vivo. How it is done:
Both drugs were administered 1 mg/kg subcutaneously (SC), and the number of rotations measured (i.e., rotations counter clockwise) over time (minutes) using the model first described by
Ungerstedt (Ungerstedt and Arbuthnott, 1970).
In some studies, adult male Sprague Dawley rats (200-250 g) were obtained from Charles River Breeding Laboratories (Raleigh, N.C.) or Harlan Laboratories (Indianapolis, Ind.). Rats were killed by decapitation, and the whole brains removed and chilled briefly in ice-cold saline. Brains were sliced with the aid of a dissecting block, and central striata were then dissected from two coronal sections containing the majority of this region. Tissue was frozen immediately on dry ice and stored at −70° C. until the day of the assay. In other studies, Sprague-Dawley rats weighing between ca. 175 g received unilateral injections of 6-OHDA. They were pretreated with 25 mg/kg desipramine, anesthetized with sodium pentobarbital and placed in a stereotaxic apparatus. Thirty gauge needles were lowered into the right aspects of the substantia nigra at Interaural zero +3.2 mm; lateral −2.0 mm; and dorsoventral −7.7 mm. Four μl of 0.1% ascorbic acid in sterile saline containing 8 μg of 6-OHDA were infused in each side over a period of 20 minutes using 10 μl Hamilton syringes and a Sage syringe pump. The needles were left in place two minutes after infusion to minimize withdrawal of the 6-OHDA solution with the needles. The small burr holes in the skull were plugged with bone wax, and the wound sutured. Post-operative care of these rats included observation, sweet food supplements, and gastric intubation during the aphagic period following lesion. Fourteen or more days after the lesion, rats were challenged with 1 mg/kg apomorphine, and rotations measured. […] The rats were then allowed to “wash-out” for a week between drug trials.

For assay [6], the target named is T4, cloned hD1 receptors expressed in Ltk cells (Homo sapiens, UniProt P21728).
T4 construct: expressed in transfected cells; host or cells: Ltk cells
T4 sequence (P21728 whole entry): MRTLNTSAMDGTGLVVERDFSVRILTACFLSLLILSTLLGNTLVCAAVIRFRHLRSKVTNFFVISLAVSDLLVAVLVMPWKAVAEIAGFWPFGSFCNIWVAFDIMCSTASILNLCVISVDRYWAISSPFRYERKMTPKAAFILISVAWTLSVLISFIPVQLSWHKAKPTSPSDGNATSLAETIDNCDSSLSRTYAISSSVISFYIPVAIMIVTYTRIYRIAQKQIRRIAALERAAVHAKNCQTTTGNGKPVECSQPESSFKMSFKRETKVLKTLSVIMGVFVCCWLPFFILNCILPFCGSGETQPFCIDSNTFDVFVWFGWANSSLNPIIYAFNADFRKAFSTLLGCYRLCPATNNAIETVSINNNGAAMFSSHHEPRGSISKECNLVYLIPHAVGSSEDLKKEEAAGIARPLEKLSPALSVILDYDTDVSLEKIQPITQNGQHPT
Kind of assay: Dopamine D1 agonist activity, activation of adenylate cyclase. Type of assay: cell-based. The settings on record: FIG. 2, compared to dihydrexidine. On the procedure: Studies were done in cloned hD1 receptors expressed in Ltk cells.
Frozen membranes were thawed and added to assay tubes (10 μg protein/tube) containing a prepared reaction mixture [100 mM Hepes, (pH 7.4), 100 mM NaCl, 4 mM MgCl2, 2 mM EDTA, 500 μM isobutyl methylxanthine (IBMX), 0.01% ascorbic acid, 10 μM pargyline, 2 mM ATP, 5 μM GTP, 20 mM phosphocreatine, 5 units of creatine phosphokinase (CPK), 1 μM propranolol] and selected drugs. The final reaction volume was 100 μL.
Basal cAMP activity was determined by incubation of tissue in the reaction mixture with no drug added. Tubes were assayed in duplicate and, after a 15 min incubation at 30° C., the reaction was stopped by the addition of 500 μL of 0.1 N HCl. Tubes were vortexed briefly, and then spun in a BHG HermLe Z 230 M microcentrifuge for five min at 15,000×g to precipitate particulates.
The concentration of cAMP in each sample was determined with an RIA of acetylated cAMP, modified from that previously described. Iodination of cAMP was performed using a now-published procedure (Brown et al., 2009). […] Antibody-bound radioactivity was separated by the addition of 25 μL of BioMag rabbit, anti-goat IgG (Advanced Magnetics, Cambridge Mass.), followed by vortexing and incubation at 4° C. for 1 h. […] Supernatants were aspirated and radioactivity in the pellet was determined using an LKB Wallac gamma counter (Gaithersburg, Md.). […]

The target of assay [7] is T5, Cloned human receptors D4 (CHO) (Homo sapiens, UniProt P21917).
T5 sequence (P21917 1-419): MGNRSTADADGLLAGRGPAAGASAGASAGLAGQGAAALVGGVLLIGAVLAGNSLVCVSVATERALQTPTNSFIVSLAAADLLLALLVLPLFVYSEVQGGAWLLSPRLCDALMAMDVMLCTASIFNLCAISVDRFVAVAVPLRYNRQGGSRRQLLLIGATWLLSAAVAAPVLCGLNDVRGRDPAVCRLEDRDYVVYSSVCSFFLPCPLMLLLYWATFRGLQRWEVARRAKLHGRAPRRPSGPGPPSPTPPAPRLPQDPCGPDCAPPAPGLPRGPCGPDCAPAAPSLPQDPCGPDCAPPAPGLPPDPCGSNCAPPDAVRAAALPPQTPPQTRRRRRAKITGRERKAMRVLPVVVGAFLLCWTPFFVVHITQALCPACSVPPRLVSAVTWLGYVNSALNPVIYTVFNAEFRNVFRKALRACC
Kind of assay: biochemical.
Procedure: as §1

Assay [8] addresses Cloned human receptors D5 (HEK) (Homo sapiens, UniProt P21918). Put plainly: biochemical.
Procedure: as §1

Chain of Cloned human receptors D5 (HEK) (P21918 whole entry): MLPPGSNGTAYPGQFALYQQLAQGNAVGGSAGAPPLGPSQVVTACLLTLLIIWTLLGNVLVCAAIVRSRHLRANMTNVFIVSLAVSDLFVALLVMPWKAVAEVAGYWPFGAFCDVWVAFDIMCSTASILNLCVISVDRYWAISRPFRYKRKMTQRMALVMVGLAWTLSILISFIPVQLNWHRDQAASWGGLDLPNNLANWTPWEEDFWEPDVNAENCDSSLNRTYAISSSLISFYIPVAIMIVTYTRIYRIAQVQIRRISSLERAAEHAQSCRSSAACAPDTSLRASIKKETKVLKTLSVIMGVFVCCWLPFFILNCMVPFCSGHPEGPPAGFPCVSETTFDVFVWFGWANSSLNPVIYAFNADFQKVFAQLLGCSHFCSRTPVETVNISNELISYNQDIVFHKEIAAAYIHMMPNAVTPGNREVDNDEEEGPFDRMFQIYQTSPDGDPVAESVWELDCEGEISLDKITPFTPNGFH

On to `Oc1cc2c(cc1O)[C@@H]1c3ccccc3CN[C@H]1CC2` (relative stereo) [dihydrexidine, trans-10,11-dihydroxy-5,6,6a,7,8,12b-hexahydrobenzo[a]phenanthridine, reference compound], for which the pKi was 7.82 in assay [1] (CHO cells, read-out: K0.5, Cloned human receptors D3 (CHO)) and 8.66 in assay [2] (C-6 cells; read-out: K0.5, Cloned human receptors D1 (C-6)).

Take `Cc1ccc2c(c1)[C@@H]1c3cc(O)c(O)cc3CC[C@H]1NC2` (racemic) [Compound 1, Trans-2-methyl-10,11-dihydroxy-5,6,6a,7,8,12b-hexahydrobenzo[a]phenanthridine hydrochloride]: the pKi in assay [3] was 6.28; in assay [1] it was 7.02; in assay [7], 6.49; in assay [8], 8.15; in assay [2] (read-out: K0.5, Cloned human receptors D1 (C-6); C-6 cells) it was 8.10. Also, the “affinity for non-dopamine receptors” value in assay [4] is “little affinity for most receptors”. The “agonist effects in presence of D1 antagonist SCH23390” value in assay [5] (SCH23390 0.3 mg/kg) is on record as “completely blocked”. Further, in assay [5] (haloperidol 0.1 mg/kg), the “rotation in presence of D2 antagonist haloperidol” value is given as “not blocked”. Further, the “duration of activity (rotations over time)” value in assay [5] (single subcutaneous injection of 1 mg/kg, FIG. 1) is reported as “activity lasting for nearly ten hours”. In addition, the “agonist intrinsic activity and potency (adenylate cyclase, percentage of activation caused by 100 μM dopamine)” value in assay [6] was “full agonist of similar intrinsic activity and potency when compared to dihydrexidine”.
